Tests used:
[1] = target: T1, human full length PIK3KA Wild-type (p110α/p85α complex) (Homo sapiens, UniProt P42336); assay: PI3K-Alpha Kinase (PIK3CA) biochemical activity, wild-type (ADP-Glo); details: 20 uM ATP
T1 construct: Recombinant, catalytically active human full length PIK3KA Wild-type and H1047R mutant were purchased; 6xHis (N); purchased EMD Millipore Sigma 14-602M
Description: (§1) PI3K-Alpha Kinase (PIK3CA) Activity, Wild-Type and H1047R Mutant and Determining IC50 Values for Inhibitors
(§2) Recombinant, catalytically active human full length PIK3KA Wild-type and H1047R mutant were purchased as 1:1 complex of N-terminal 6×his tagged p110α (catalytic) and untagged p85α, (regulatory subunit) from EMD Millipore Sigma (cat. no. 14-602M and 14-792M, respectively). PIP2diC8 (Avanti Polar Lipids Inc., cat. no. 850185) or Soy PI (Avanti Polar Lipids Inc., cat. No. 840044P) was used as lipid substrate. PIP2diC8 or PI lyophilized powder was dissolved in milliQ water to a concentration of 1 mM just before use. 10 mM stock compounds in DMSO were serially diluted 1:3 to generate a 10-point curve and plated using an acoustic liquid handler system (Echo 550 series instrument, Labcyte). A 10× intermediate compound plate (200 uM starting compound concentration and 10% DMSO) was prepared before starting the reaction. A typical reaction mixture (50 uL) comprised 40 mM HEPES buffer, pH 7.4, 25 mM MgCl2, 0.01% v/v triton-X-100, 1% v/v DMSO, 20 mM NaCl, 1-5 nM WT or H1047R PI3K protein, 20 uM ATP, and 50 uM PIP2diC8 or Soy PI. 1% DMSO buffer alone without test compound was employed as MAX control (full activity in the absence of any inhibitor), and no enzyme control was used to determine the level of background Adenosine 5′-diphosphate (ADP) (MIN control). First, Wild-type (WT) and H1047R mutant protein in kinase buffer with all components except ATP were incubated with or without compound at 27° C. for 1 h. After the pre-incubation, the reaction was initiated by the addition of […] (20 uM final concentration). The reaction was allowed to proceed until about 10% conversion of ATP (2 uM ADP) at 27° C. After that time, 5 uL of reaction was mixed with 5 uL of ADP-Kinase Glo Reagent (ADP-Glo Kinase assay kit, Promega cat. no. V9102) supplemented with MgCl2 10 mM to stop the reaction and deplete the remaining ATP for 40 min at room temperature. Then, 10 uL of Kinase Detection Reagent (ADP-Glo Kinase assay kit, Promega cat. no. V9102) was added to simultaneously convert ADP to ATP and allow the newly synthesized ATP to be measured using a luciferase/luciferin reaction. After 30 min at room temperature the light generated was measured using a luminometer (EnVision plate reader, Perkin Elmer). Process data through Genedata-Screener tool. Relative IC50 values are determined using luminescence units by calculating percent inhibition with respect to on-plate “MIN” and “MAX” controls. Data was analyzed using a 4-parameter nonlinear logistic equation (four-parameter logistic concentration-response curve):
(§3) Y=bot+[(top−bot)/1+(x/IC50)slope]
(§4) where Y=% inhibition, X=concentration yielding y % inhibition, Bottom=minimum value of y attained by curve, Top=maximum value of y attained by curve and Slope=steepness of curve at IC50.
(§5) % Inh=[(median Max−x/median Max−median Min)]·100
(§6) IC50: concentration of compound that reduces a given response (ligand binding, enzyme response) by 50%. IC50 relative: concentration giving half the compound's maximum response.
(§7) For IC50 values shown in Table A, “A” means IC50<0.5 μM; “B” means IC50 ranging between 0.5 μM and 1.0 μM; “C” means IC50 ranging between 1 μM and 5 μM; “D” means IC50 ranging between 5 μM and 10 μM; “E” means IC50>10 μM.

[2] = target: T2, human full length PIK3KA H1047R mutant (p110α/p85α complex) (Homo sapiens, UniProt P42336, H1047R); assay: PI3K-Alpha Kinase (PIK3CA) biochemical activity, H1047R mutant (ADP-Glo); details: 20 uM ATP
T2 construct: Recombinant, catalytically active human full length PIK3KA Wild-type and H1047R mutant were purchased; 6xHis (N); purchased EMD Millipore Sigma 14-792M
Description: as §1, §2, §3, §4, §5, §6, §7

T2 sequence (P42336 whole entry H1047R): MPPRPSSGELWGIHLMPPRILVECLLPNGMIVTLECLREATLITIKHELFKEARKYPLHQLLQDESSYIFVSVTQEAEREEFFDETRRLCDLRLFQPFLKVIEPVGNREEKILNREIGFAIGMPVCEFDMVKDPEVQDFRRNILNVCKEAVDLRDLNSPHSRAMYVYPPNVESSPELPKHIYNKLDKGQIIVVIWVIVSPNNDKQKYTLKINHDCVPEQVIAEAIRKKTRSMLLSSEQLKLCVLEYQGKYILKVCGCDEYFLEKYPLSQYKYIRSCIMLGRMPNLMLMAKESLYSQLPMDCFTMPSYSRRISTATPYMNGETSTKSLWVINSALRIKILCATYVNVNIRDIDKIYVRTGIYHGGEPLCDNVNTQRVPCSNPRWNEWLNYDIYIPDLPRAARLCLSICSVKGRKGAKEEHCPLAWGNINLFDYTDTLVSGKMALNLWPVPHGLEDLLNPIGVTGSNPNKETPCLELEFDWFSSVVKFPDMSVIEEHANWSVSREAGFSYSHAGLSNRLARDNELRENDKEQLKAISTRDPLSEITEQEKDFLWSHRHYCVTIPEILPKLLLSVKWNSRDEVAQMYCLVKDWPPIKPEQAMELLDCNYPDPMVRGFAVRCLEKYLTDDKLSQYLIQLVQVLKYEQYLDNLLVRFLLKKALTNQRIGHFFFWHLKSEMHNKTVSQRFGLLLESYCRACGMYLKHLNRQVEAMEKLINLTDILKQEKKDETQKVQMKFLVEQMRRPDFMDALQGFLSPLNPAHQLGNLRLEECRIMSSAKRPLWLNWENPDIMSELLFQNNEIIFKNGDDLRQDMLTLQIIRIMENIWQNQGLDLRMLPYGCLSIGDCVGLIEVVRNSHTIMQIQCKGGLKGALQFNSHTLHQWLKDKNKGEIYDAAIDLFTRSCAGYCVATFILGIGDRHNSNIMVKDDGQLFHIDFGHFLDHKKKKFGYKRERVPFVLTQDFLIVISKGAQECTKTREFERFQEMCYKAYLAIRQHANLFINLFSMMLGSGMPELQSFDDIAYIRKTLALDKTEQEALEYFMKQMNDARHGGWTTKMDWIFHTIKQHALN
T2 sequence (P27986 whole entry partner): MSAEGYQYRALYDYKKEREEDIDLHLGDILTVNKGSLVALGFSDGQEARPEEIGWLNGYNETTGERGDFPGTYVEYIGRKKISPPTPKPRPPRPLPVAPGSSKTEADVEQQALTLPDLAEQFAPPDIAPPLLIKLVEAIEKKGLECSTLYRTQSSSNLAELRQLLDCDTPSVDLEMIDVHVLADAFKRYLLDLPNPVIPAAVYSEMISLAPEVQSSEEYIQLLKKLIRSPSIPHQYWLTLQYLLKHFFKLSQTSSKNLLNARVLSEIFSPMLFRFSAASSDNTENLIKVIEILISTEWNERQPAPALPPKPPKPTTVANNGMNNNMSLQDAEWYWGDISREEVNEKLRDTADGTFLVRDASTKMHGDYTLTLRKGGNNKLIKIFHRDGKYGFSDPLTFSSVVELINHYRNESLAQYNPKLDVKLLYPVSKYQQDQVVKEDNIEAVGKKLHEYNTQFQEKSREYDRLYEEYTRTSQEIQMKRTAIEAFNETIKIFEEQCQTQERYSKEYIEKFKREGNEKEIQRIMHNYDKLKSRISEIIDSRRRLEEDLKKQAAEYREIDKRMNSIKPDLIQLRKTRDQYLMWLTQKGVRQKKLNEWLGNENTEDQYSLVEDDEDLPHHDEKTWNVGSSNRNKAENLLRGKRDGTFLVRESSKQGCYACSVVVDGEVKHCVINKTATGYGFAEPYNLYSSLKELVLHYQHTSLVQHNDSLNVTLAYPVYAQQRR

SMILES	IC50 ([1]; Soy PI lipid substrate)	IC50 ([2]; Soy PI lipid substrate)	IC50 ([1]; PIP2diC8 lipid substrate)	IC50 ([2]; PIP2diC8 lipid substrate)
Cc1cc(C(C)Nc2ccccc2C(=O)O)c2oc(-c3ccc(OC(C)C)nc3)cc(=O)c2c1 (stereo not shown) [Example 1, 2-[1-[2-(6-Isopropoxy-3-pyridyl)-6-methyl-4-oxo-chromen-8-yl]ethylamino]benzoic acid 2,2,2-trifluoroacetic acid]	> 10 µM	0.5 to 1 µM	–	–
Cc1c(-c2ccccn2)oc2c(C(C)Nc3ccccc3C(=O)O)cc(F)cc2c1=O (single isomer, unassigned) [Example 68, 2-[1-[6-Fluoro-3-methyl-4-oxo-2-(2-pyridyl)chromen-8-yl]ethylamino]benzoic acid, Isomer 1,2,2,2-trifluoroacetic acid]	5 to 10 µM	< 0.5 µM	–	–
Cc1cc(C(C)Nc2ccccc2C(=O)O)c2oc(-c3ccc(C(F)(F)F)nc3)cc(=O)c2c1 (single isomer, unassigned; isomer 2) [Example 38, 2-[1-[6-Methyl-4-oxo-2-[6-(trifluoromethyl)-3-pyridyl]chromen-8-yl]ethylamino]benzoic acid, Isomer 2]	> 10 µM	< 0.5 µM	–	–
Cc1cc(C(C)Nc2ccccc2C(=O)O)c2oc(-c3cnn(-c4ccc(C#N)cc4F)c3)cc(=O)c2c1 (single isomer, unassigned) [Example 104, 2-[1-[2-[1-(4-Cyano-2-fluoro-phenyl)pyrazol-4-yl]-6-methyl-4-oxo-chromen-8-yl]ethylamino]benzoic acid, Isomer 2,2,2,2-trifluoroacetic acid]	> 10 µM	0.5 to 1 µM	–	–
COc1ncc(-n2cc(-c3cc(=O)c4cc(C)cc(C(C)Nc5ccccc5C(=O)O)c4o3)cn2)cn1 (single isomer, unassigned) [Example 105, 2-[1-[2-[1-(2-Methoxypyrimidin-5-yl)pyrazol-4-yl]-6-methyl-4-oxo-chromen-8-yl]ethylamino]benzoic acid, Isomer 2,2,2,2-trifluoroacetic acid]	> 10 µM	0.5 to 1 µM	–	–
COc1ncc(-c2cc(=O)c3cc(C)cc(C(C)Nc4ccccc4C(=O)O)c3o2)cn1 (single isomer, unassigned) [Example 4, 2-[1-[2-(2-Methoxypyrimidin-5-yl)-6-methyl-4-oxo-chromen-8-yl]ethylamino]benzoic acid]	–	–	< 0.5 µM	< 0.5 µM
Cc1cc(C(C)Nc2ccccc2C(=O)O)c2oc(-c3cnc(C4CC4)nc3)cc(=O)c2c1 (single isomer, unassigned; isomer 2) [Example 26, 2-[1-[2-(2-Cyclopropylpyrimidin-5-yl)-6-methyl-4-oxo-chromen-8-yl]ethylamino]benzoic acid, Isomer 2]	5 to 10 µM	< 0.5 µM	–	–
Cc1cc(C(C)Nc2ccccc2C(=O)O)c2oc(-c3cnn(-c4ccc(S(C)(=O)=O)cc4)c3)cc(=O)c2c1 (single isomer, unassigned) [Example 88, 2-[1-[6-Methyl-2-[1-(4-methylsulfonylphenyl)pyrazol-4-yl]-4-oxo-chromen-8-yl]ethylamino]benzoic acid, Isomer 2,2,2,2-trifluoroacetic acid]	1 to 5 µM	< 0.5 µM	–	–
CC(Nc1ccccc1C(=O)O)c1cc(C(F)(F)F)cc2c(=O)cc(-c3cnn(-c4ccc(C#N)cc4)c3)oc12 (single isomer, unassigned; isomer 1) [Example 99, 2-[1-2-[1-(4-Cyanophenyl)pyrazol-4-yl]-4-oxo-6-(trifluoromethyl)chromen-8-yl]ethylamino]benzoic acid, Isomer 1]	1 to 5 µM	0.5 to 1 µM	–	–
Cc1cc(C(C)Nc2ccccc2C(=O)O)c2oc(-c3cnn(-c4ccccn4)c3)cc(=O)c2c1 (single isomer, unassigned) [Example 108, 2-[1-[6-Methyl-4-oxo-2-[1-(2-pyridyl)pyrazol-4-yl]chromen-8-yl]ethylamino]benzoic acid, Isomer 2,2,2,2-trifluoroacetic acid]	1 to 5 µM	0.5 to 1 µM	–	–
Cc1cc(C(C)Nc2ccccc2C(=O)O)c2oc(-c3cn(-c4ccc(C#N)cc4)nc3C)cc(=O)c2c1 (single isomer, unassigned) [Example 109, 2-[1-[2-[1-(4-Cyanophenyl)-3-methyl-pyrazol-4-yl]-6-methyl-4-oxo-chromen-8-yl]ethylamino]benzoic acid, Isomer 2,2,2,2-trifluoroacetic acid]	5 to 10 µM	0.5 to 1 µM	–	–

The next lines start with the values.

IC50 ([1]; Soy PI lipid substrate)	IC50 ([2]; Soy PI lipid substrate)	IC50 ([1]; PIP2diC8 lipid substrate)	IC50 ([2]; PIP2diC8 lipid substrate)	SMILES
1 to 5 µM	< 0.5 µM	–	–	Cc1cc(C(C)Nc2ccccc2C(=O)O)c2oc(-c3cccnc3)cc(=O)c2c1 (single isomer, unassigned; isomer 2) [Example 14, 2-[1-[6-Methyl-4-oxo-2-(3-pyridyl)chromen-8-yl]ethylamino]benzoic acid, Isomer 2]
5 to 10 µM	< 0.5 µM	–	–	Cc1cc(C(C)Nc2ccccc2C(=O)O)c2oc(-c3cccc(C(F)F)n3)cc(=O)c2c1 (single isomer, unassigned; isomer 2) [Example 71, 2-[1-[2-[6-(Difluoromethyl)-2-pyridyl]-6-methyl-4-oxo-chromen-8-yl]ethylamino]benzoic acid, Isomer 2]
1 to 5 µM	< 0.5 µM	–	–	Cc1cc(C(C)Nc2ccccc2C(=O)O)c2oc(-c3cnn(-c4cccnc4)c3)cc(=O)c2c1 (single isomer, unassigned; isomer 2) [Example 50, 2-[1-[6-Methyl-4-oxo-2-[1-(3-pyridyl)pyrazol-4-yl]chromen-8-yl]ethylamino]benzoic acid, Isomer 2]
5 to 10 µM	< 0.5 µM	–	–	Cc1cc(C(C)Nc2ccccc2C(=O)O)c2oc(-c3cnn(-c4cccnc4)c3)cc(=O)c2c1 (stereo not shown) [Example 48, 2-[1-[6-Methyl-4-oxo-2-[1-(3-pyridyl)pyrazol-4-yl]chromen-8-yl]ethylamino]benzoic acid 2,2,2-trifluoroacetic acid]
–	–	1 to 5 µM	< 0.5 µM	Cc1cc(C(C)Nc2ccccc2C(=O)O)c2oc(-n3ccnc3)cc(=O)c2c1 (single isomer, unassigned) [Example 59, 2-[1-(2-Imidazol-1-yl-6-methyl-4-oxo-chromen-8-yl)ethylamino]benzoic acid, Isomer 2,2,2,2-trifluoroacetic acid]
–	–	> 10 µM	> 10 µM	Cc1cc(C(C)Nc2ccccc2C(=O)O)c2oc(-c3cnccn3)cc(=O)c2c1 (single isomer, unassigned; isomer 2) [Example 16, 2-[1-(6-Methyl-4-oxo-2-pyrazin-2-yl-chromen-8-yl)ethylamino]benzoic acid, Isomer 2]
0.5 to 1 µM	< 0.5 µM	–	–	COc1cccc(-c2cc(=O)c3cc(C)cc(C(C)Nc4ccccc4C(=O)O)c3o2)n1 (stereo not shown) [Example 11, 2-[1-[2-(6-Methoxy-2-pyridyl)-6-methyl-4-oxo-chromen-8-yl]ethylamino]benzoic acid 2,2,2-trifluoroacetic acid]
> 10 µM	0.5 to 1 µM	–	–	Cc1cc(C(C)Nc2ccccc2C(=O)O)c2oc(-c3cnc(C)nc3)cc(=O)c2c1 (stereo not shown) [Example 13, 2-[1-[6-Methyl-2-(2-methylpyrimidin-5-yl)-4-oxo-chromen-8-yl]ethylamino]benzoic acid 2,2,2-trifluoroacetic acid]
1 to 5 µM	< 0.5 µM	–	–	Cc1cc(C(C)Nc2ccccc2C(=O)O)c2oc(-c3cn[nH]c3)cc(=O)c2c1 (single isomer, unassigned) [Example 51, 2-[1-[6-Methyl-4-oxo-2-(1H-pyrazol-4-yl)chromen-8-yl]ethylamino]benzoic acid, Isomer 2,2,2,2-trifluoroacetic acid]
